The test addresses T1, α1A-ARS (Homo sapiens, UniProt P35348).
T1 sequence (P35348 1-466): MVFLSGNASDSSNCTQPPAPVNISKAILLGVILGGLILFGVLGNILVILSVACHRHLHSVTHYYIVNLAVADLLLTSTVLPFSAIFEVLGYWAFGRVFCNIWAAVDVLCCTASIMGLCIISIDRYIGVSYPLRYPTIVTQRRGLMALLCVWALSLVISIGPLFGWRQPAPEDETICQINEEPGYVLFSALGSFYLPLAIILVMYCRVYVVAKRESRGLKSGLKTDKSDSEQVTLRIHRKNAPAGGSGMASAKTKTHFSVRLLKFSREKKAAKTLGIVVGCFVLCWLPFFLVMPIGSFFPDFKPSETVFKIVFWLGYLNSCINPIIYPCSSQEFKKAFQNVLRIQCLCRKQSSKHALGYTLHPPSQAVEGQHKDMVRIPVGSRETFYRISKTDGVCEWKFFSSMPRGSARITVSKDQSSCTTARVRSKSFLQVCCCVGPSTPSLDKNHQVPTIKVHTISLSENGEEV
As to the kind of experiment: Calcium flux assay (Calcium 6 dye) in cells expressing an α1-AR. The class given is cell-based. Particulars: for Emax: read-out: Average Emax. From the text: Calcium flux experimental design: alpha-1 adrenergic receptors (α1-ARs) couple to Gq proteins, which results in downstream activation of phospholipase C and release of calcium from intracellular stores. Intracellular calcium increase upon α1-AR activation can be detected by Calcium 6 dye.
Cell preparation: cells expressing an α1-AR were washed in warmed phosphate-buffered saline to remove medium and harvested using versene (Caisson Labs, catalog #EDL01).
Media was removed from cells by tapping plates upside-down on absorbent wipes, followed by 15 second upside-down 50×g centrifugation, again on absorbent wipes. 12 μL cell dye solution was added to cells using a reagent dispenser (Integra viaFILL) and cells were incubated for 90 minutes at 37° C., 5% CO2.
Compound preparation: candidate alpha-adrenergic compounds, dissolved to 10 mM in DMSO, were diluted in_assay buffer (HBSS/H-EPES containing 2 mM CaCl2 and 2 mM probenecid sodium salt). […] On all assay plates, vehicle (DMSO) and positive control (10 μM epinephrine) conditions were included on the plate, as well as a dose-response curve of epinephrine. […] 384 well compound plates were centrifuged briefly at 250×g, sealed (Axygen PCR-SP) and incubated at 37° C. until the 90 minute cell dye incubation was complete.
Calcium 6 stained cells and 384 well compound plates were loaded onto the Flexstation and incubated on the machine for 5 minutes before initiating the assay.
For each assay well, baseline Calcium 6 fluorescence was detected for 18 seconds prior to 12 μL compound addition at 12 μL per second. Changes in Calcium 6 fluorescence were detected for a further 22 seconds, for a total read time of 40 seconds. All detection was performed with medium gain sensitivity, bottom read, with 6 flashes per read.
Data analysis: for calcium flux, analysis of maximum change from baseline over the 40-second read time was determined using Softmax Pro and data was exported as raw text files. Potency estimates (EC50) were derived from dose response curves (maximum change from baseline versus the log concentration of test compound) fit by four-parameter nonlinear regression using Graphpad Prism. Efficacy was determined by comparing the magnitude of the test compound signal window (fitted curve max−min) with the signal window of the full agonist control, epinephrine. […] All experiments were repeated a minimum of three times, with the average (mean) potency and maximum effect relative to the within-plate full agonist dose-response comparator reported.
In general terms: A change in cytosolic calcium serves as a functional read-out for many receptors and channels.

Setting [1] is: calcium flux, α1A-AR, maximum effect relative to full agonist epinephrine.
Setting [2] is: calcium flux, α1A-AR, mean of at least three experiments, read-out: Average PEC50.

Emax and EC50 data for 57 compounds are collected here from patent US20230312524A1, “ALPHA1A-ADRENERGIC RECEPTOR AGONISTS AND METHODS OF USE” (CuraSen Therapeutics, Inc., priority 2020, published 2023).

As usually defined, the Emax is the size of the effect at its maximum, as opposed to the concentration needed.

Where two headings read alike, the source gives them in different places. A value given as a limit tells only on which side of the number the result lay.

Take `Clc1ccc(CC2=NCCN2)c(-c2ccco2)c1` [Compound 30]: the Emax under setting [1] was more than 61%. Also, the EC50 under setting [2] is less than 9.77 nM.
For `Clc1ccc(CC2=NCCN2)c(-c2ncccn2)c1` [Compound 32] the same measures were more than 61% and 10 to 977 nM.
The like results for `Clc1ccc(CC2=NCCN2)c(-c2cccnn2)c1` [Compound 33] were, in that order, less than 20% and more than 1000 nM.
For `Clc1ccc(CC2=NCCN2)c(-c2ccncn2)c1` [Compound 34] the same measures were 21 to 60% and more than 1000 nM.
Consider `Cc1ccoc1-c1cc(Cl)ccc1CC1=NCCN1` [Compound 35], for which the maximum response (Emax) under setting [1] was more than 61%. Besides, the EC50 under setting [2] was less than 9.77 nM.
The like results for `Cc1c(CC2=NCCN2)ccc(Cl)c1-c1nccs1` [Compound 36] were, in that order, less than 20% and more than 1000 nM.
The like results for `Cc1cc(-c2cc(Cl)ccc2CC2=NCCN2)sn1` [Compound 37] were, in that order, 21 to 60% and 10 to 977 nM.
Take `Cc1cc(Cl)ccc1CC1=NCCN1` [Compound 38]: the Emax was 21 to 60%. Moreover, under setting [2], the EC50 was in the range of 10 to 977 nM.
The like results for `FC(F)(F)c1cc(Cl)ccc1CC1=NCCN1` [Compound 39] were, in that order, more than 61% and 10 to 977 nM.
For the compound `COc1cc(Cl)ccc1CC1=NCCN1` [Compound 40], the Emax lay within 21 to 60%. Also, the EC50 under setting [2] was 10 to 977 nM.
For `CC(C)(C)c1cc(Cl)ccc1CC1=NCCN1` [Compound 41] the same measures were less than 20% and more than 1000 nM.
The like results for `Cc1oc2ccc(CC3=NCCN3)cc2c1C` [Compound 42] were, in that order, less than 20% and more than 1000 nM.
For `Cc1oc2cc(CC3=NCCN3)ccc2c1C` [Compound 43] the same measures were 21 to 60% and 10 to 977 nM.
As to `Cc1c(CC2=NCCN2)cc(C)c2occc12` [Compound 44], the maximal response (Emax) was 21 to 60%. For the same compound, the EC50 under setting [2] lay within 10 to 977 nM.
The like results for `Cc1oc2c(CC3=NCCN3)cccc2c1C` [Compound 45] were, in that order, more than 61% and 10 to 977 nM.
`c1cc2c(cc1CC1=NCCN1)NCC21CC1` [Compound 46]: under setting [1], the Emax lay within 21 to 60%. Moreover, the EC50 under setting [2] fell in the range of 10 to 977 nM.
In the case of `COc1c(CC2=NCCN2)ccc2occc12` [Compound 47], the Emax lay in the range of 21 to 60%. Further, the EC50 under setting [2] lay in the range of 10 to 977 nM.
`c1cc(CC2=NCCN2)c2occc2c1` [Compound 48]: the Emax is more than 61%. Further, under setting [2], the EC50 fell in the range of 10 to 977 nM.
The like results for `c1cc(CC2=NCCN2)c2[nH]ccc2c1` [Compound 50] were, in that order, 21 to 60% and 10 to 977 nM.
For `c1cc(CC2=NCCN2)c2[nH]ncc2c1` [Compound 51] the same measures were 21 to 60% and more than 1000 nM.
The like results for `Clc1c(CC2=NCCN2)ccc2occc12` [Compound 52] were, in that order, less than 20% and 10 to 977 nM.
Regarding `Clc1cc2occc2cc1CC1=NCCN1` [Compound 53], the Emax is more than 61%. The EC50 under setting [2] was less than 9.77 nM.
For `Cc1c(CC2=NCCN2)ccc2occc12` [Compound 54] the same measures were 21 to 60% and 10 to 977 nM.
With `Cc1c(CC2=NCCN2)ccc2[nH]ncc12` [Compound 55], the Emax lay in the range of 21 to 60%. Further, the EC50 under setting [2] lay within 10 to 977 nM.
The like results for `Cc1c(CC2=NCCN2)cc(Cl)c2occc12` [Compound 56] were, in that order, 21 to 60% and 10 to 977 nM.
On to `Cc1c(CC2=NCCN2)ccc2c1CCO2` [Compound 58], for which the Emax is 21 to 60%. The EC50 under setting [2] was in the range of 10 to 977 nM.
For `Cc1cc2cccc(CC3=NCCN3)c2o1` [Compound 59] the same measures were more than 61% and 10 to 977 nM.
Turning to `Cc1coc2c(CC3=NCCN3)cccc12` [Compound 60], the Emax was 21 to 60%. Under setting [2], the EC50 was in the range of 10 to 977 nM.
As for `Cc1c(CC2=NCCN2)ccc2cc[nH]c12` [Compound 61], the Emax is less than 20%. Moreover, under setting [2], the EC50 is 10 to 977 nM.
Take `Clc1cn(-c2cn[nH]c2)c2cc(CC3=NCCN3)ccc12` [Compound 62]: the Emax under setting [1] was less than 20%. Besides, the EC50 under setting [2] was more than 1000 nM.
For the compound `Clc1cn(C2CC2)c2cc(CC3=NCCN3)ccc12` [Compound 63], the Emax fell in the range of 21 to 60%. In addition, under setting [2], the EC50 lay in the range of 10 to 977 nM.
The like results for `CC(C)(C)c1ccccc1CC1=NCCN1` [Compound 64] were, in that order, less than 20% and more than 1000 nM.
Regarding `Clc1ccc(CC2=NCCN2)c(C2CC2)c1` [Compound 65], the Emax is more than 61%. The EC50 under setting [2] was 10 to 977 nM.
For `Cc1cc(C(F)(F)F)ccc1CC1=NCCN1` [Compound 66] the same measures were 21 to 60% and 10 to 977 nM.
For `CCc1cc(Cl)ccc1CC1=NCCN1` [Compound 67] the same measures were more than 61% and 10 to 977 nM.
`FC(F)(F)c1ccc(CC2=NCCN2)c(N2CCOCC2)c1` [Compound 68]: the Emax under setting [1] is less than 20%. Moreover, the EC50 under setting [2] is more than 1000 nM.
The like results for `FC(F)(F)c1ccc(CC2=NCCN2)c(N2CCCCC2)c1` [Compound 69] were, in that order, 21 to 60% and 10 to 977 nM.
As for `Fc1ccc(CC2=NCCN2)c(C2CC2)c1` [Compound 70], the Emax lay within 21 to 60%. The EC50 under setting [2] lay within 10 to 977 nM.
The like results for `CCc1cc(F)ccc1CC1=NCCN1` [Compound 71] were, in that order, 21 to 60% and 10 to 977 nM.
As for `Fc1ccc(CC2=NCCN2)c(N2CCOCC2)c1` [Compound 72], under setting [1], the Emax was less than 20%. In addition, the EC50 under setting [2] was more than 1000 nM.
For `Cc1cc(F)ccc1CC1=NCCN1` [Compound 73], the Emax was 21 to 60%. For the same compound, the EC50 under setting [2] was 10 to 977 nM.
As to `Clc1ccc(CC2=NCCN2)c(-c2ccccc2)c1` [Compound 74], the Emax under setting [1] is more than 61%. The EC50 under setting [2] fell in the range of 10 to 977 nM.
For `FC(F)(F)c1ccc(CC2=NCCN2)c(-c2ccccc2)c1` [Compound 75] the same measures were more than 61% and 10 to 977 nM.
With `FCc1cc(Cl)ccc1CC1=NCCN1` [Compound 76], the Emax is 21 to 60%. In addition, the EC50 under setting [2] fell in the range of 10 to 977 nM.
The like results for `FC(F)(F)c1ccc(CC2=NCCN2)c(C2CC2)c1` [Compound 77] were, in that order, more than 61% and 10 to 977 nM.
For `CCc1cc(C(F)(F)F)ccc1CC1=NCCN1` [Compound 78] the same measures were more than 61% and less than 9.77 nM.
On to `Fc1ccc(CC2=NCCN2)c(-c2ccccc2)c1` [Compound 79], for which the maximal response (Emax) under setting [1] was more than 61%. Further, the EC50 under setting [2] was less than 9.77 nM.
In the case of `Fc1ccc(CC2=NCCN2)c(C(F)(F)F)c1` [Compound 80], the Emax lay within 21 to 60%. Moreover, the EC50 under setting [2] is more than 1000 nM.
As for `COc1ccc(CC2=NCCN2)c(C(F)(F)F)c1` [Compound 81], the Emax was more than 61%. For the same compound, the EC50 under setting [2] was 10 to 977 nM.
For `FC(F)c1cc(Cl)ccc1CC1=NCCN1` [Compound 82] the same measures were 21 to 60% and 10 to 977 nM.
With `N#Cc1ccc(CC2=NCCN2)c(C(F)(F)F)c1` [Compound 83], the Emax lay within 21 to 60%. The EC50 under setting [2] is more than 1000 nM.
On to `CC(C)c1cc(Cl)ccc1CC1=NCCN1` [Compound 84], for which the Emax was 21 to 60%. The EC50 under setting [2] was in the range of 10 to 977 nM.
The like results for `FC(F)(F)Oc1cc(Cl)ccc1CC1=NCCN1` [Compound 85] were, in that order, 21 to 60% and 10 to 977 nM.
The like results for `Cc1ccc(Cl)cc1CC1=NCCN1` [Compound 86] were, in that order, 21 to 60% and 10 to 977 nM.
As to `Cc1cccc(Cl)c1CC1=NCCN1` [Compound 87], the EC50 was in the range of 10 to 977 nM and the Emax lay within 21 to 60%.
With `CC(C)Cc1cc(Cl)ccc1CC1=NCCN1` [Compound 88], the Emax is more than 61%. Further, under setting [2], the EC50 is 10 to 977 nM.
For `Cc1c(Cl)cccc1CC1=NCCN1` [Compound 89] the same measures were 21 to 60% and more than 1000 nM.
